According to article PMC12498136, “Synthesis and biological evaluation of novel carnosic acid derivatives with anticancer activity” (RSC Advances, 2025):

What was measured:
Format in all cases: cell-based
[1] = system: SW480 cells; test: Apoptosis assay (annexin V-FITC/PI, flow cytometry); conditions: SW480, 6.3 μM, 24, 48 or 72 h
Procedure: Our objective was to assess whether the anticancer activity observed in SW480 cells treated with compound 17 results from the activation of apoptosis.
SW480 cells were seeded at a density of 1.68 × 10^5 cells per well in 6-well plates and incubated at 37 °C. […] Adherent cells were harvested by trypsinization, and they were washed with DPBS and collected by centrifugation along with the cells in suspension. Cells were resuspended in 3 μL annexin V FITC and 95 μL binding buffer containing 140 mM NaCl, 2.5 mM CaCl2, and 10 mM HEPES/NaOH (pH 7.4). The cell suspension was then incubated in the dark, at room temperature for 30 min. The cells were then stained with 510 μL of a mixture containing 500 μL of binding buffer and 10 μL of PI solution (1 mg mL^−1). Finally, data from 1 × 10^4 cells were collected through fluorescence activated cell sorting (FACS) analysis using a Gallios flow cytometer (Beckman Coulter, Brea, CA, USA) at 488 nm.

[2] = system: Rb; test: Western blot of Rb levels in SW480 cells; conditions: SW480, 6.3 μM, 24, 48, and 72 h, relative to control
Procedure: SW480 cells were seeded in 6-well plates and treated as described in the previous subsection. After 24, 48 or 72 h of incubation, adherent cells were washed twice with ice-cold DPBS and incubated with lysis buffer (0.2% Triton X-100, 0.5 mM sodium deoxycholate, 1 mM Na-EDTA, 1 mM DTT, 20 mM Tris–HCl (pH 7.5), 0.5% phosphatases inhibitor cocktail, and 1% proteases inhibitor cocktail) for 30 min at 4 °C. The cells were scraped, sonicated, and centrifuged at 120 00 × g (20 min at 4 °C). […] The gels were then transferred to PVDF membranes, which were blocked with 5% skim milk in PBS-Tween-20 (0.1%) for 1 h at room temperature. Subsequently, the membranes were incubated with the primary antibodies for 30 mi at room temperature (actin) or overnight at 4 °C (CDK4, CDK6, cyclin A, Rb and SOD2/MnSOD). After incubation, the membranes were washed with PBS-Tween-20 (0.1%) and incubated with anti-mouse secondary antibody (40 min) or anti-rabbit secondary antibody (1 h) at room temperature. Finally, the membranes were washed with PBS-Tween-20 (0.1%) and treated with the Immobilon Western Chemiluminescent HRP Substrate Kit, and autoradiography was performed using an FPM-100A film processor (Fujifilm, Tokyo, Japan). western blot results were obtained from three independent experiments, except for cyclin A at 24 h (n = 2), Rb protein at 24 and 72 h (n = 2), and SOD2 (MnSOD) at 72 h (n = 2).

[3] = system: Caco-2 cells; test: MTT cell viability assay in Caco-2 cells; conditions: Homo sapiens, Caco-2, 72 h, read-out: IC50 Caco-2
Procedure: (§1) The MTT assay was used to assess the effect of the compounds on cell viability. For this purpose, A375 (1500 cells per well), BJ (10 000 cells per well), Caco-2 (4000 cells per well), HCT116 (3000 cells per well), Mia Paca-2 (2000 cells per well), SW480 (6000 cells per well), and SW620 (8000 cells per well) cells were seeded in 96-well plates and incubated for 24 h. Subsequently, the culture medium was switched with a new medium containing DMSO (control) or the compound at a specified concentration. Following a 72 h incubation period, the supernatant was aspirated, and 100 μL of a mixture (1 : 1) of filtered MTT solution (1 mg per mL PBS) and FBS-free medium was added. The plates were then incubated for 1 h at 37 °C. After this time, the supernatant was aspirated, and the formazan crystals were dissolved in 100 μL of DMSO in each well. Relative cell viability was calculated by measuring absorbance at 570 nm using a Benchmark Plus Microplate Reader (Bio-Rad Laboratories, Hercules, CA, USA). Results are presented as the mean ± standard deviation (SD) of IC50 values, determined by nonlinear regression analysis of dose–response curves (log(inhibitor) vs. response with variable slope (four parameters)) using GraphPad Prism 9 software (GraphPad Software, San Diego, CA, USA).

[4] = system: BJ cells; test: MTT cell viability assay in non-tumoral BJ fibroblasts
Procedure: as §1

[5] = system: SW480 cells; test: Cell proliferation assay and cell doubling time; conditions: 6.3 μM, ln(2)/cell growth rate
Excerpt: Cell growth rates represent a characteristic of cell lines, indicating the rate at which the cell population size changes over time.[29] The commonly used metric for assessing the cell growth rate is the cell doubling time, which denotes the time required for a cell population to double in size. Cell doubling time can be estimated using the following formula: ln(2)/cell growth rate.[30] A time-dependent cell growth curve was constructed to elucidate the effect of compound 17 on the growth pattern of SW480 cells (Fig. 4). […] The cell concentration at each time point allowed us to determine the cell growth rate and subsequently calculate the cell doubling time. Compound 17 induced an increase in the doubling time of SW480 cells (69 h) compared to the control group (43 h). In summary, compound 17 affected the growth pattern of SW480 cells by increasing the cell doubling time, consequently decreasing the cell growth rate.
SW480 cells (1.68 × 10^5 cells per well) were seeded in 6-well plates and incubated at 37 °C for 24 h. The cells were then treated with compound 17 (IC50 value) for 24, 48 or 72 h. […] Cell viability was determined using the Invitrogen Countess 3 Automated Cell Counter (Thermo Fisher Scientific, Waltham, MA, USA). […]

For `CC(=O)Oc1c(C(C)C)cc2c(c1OC(C)=O)[C@@]1(NC(=O)OCC(C)C)CCCC(C)(C)[C@@H]1CC2` [Compound 17, (4bR,8aS)-8,8-Dimethyl-4b-{[(2-methylpropoxy)carbonyl]amino}-2-(propan-2-yl)-4b,5,6,7,8,8a,9,10-octahydrophenanthrene-3,4-diyl diacetate], the induction of apoptosis [1] was “did not induce apoptosis”, the Rb protein level [2] was “notable decrease” and the IC50 [3] was 16 ± 2 µM. For the same compound, the “times less potent in BJ cells than in cancer cell lines (selectivity)” value ([4]; BJ vs cancer cell lines) was 3–8 times, the IC50 ([4]; Homo sapiens, BJ, MTT assay, 72 h incubation) was over 50 µM and the cell doubling time [5] was 69 h.
